Assay results from US10183047B2, “Chromium-containing compositions in combination with Phyllanthus emblica and shilajit having synergistic effects for improving endothelial function and cardiovascular health” (Natreon, Inc., priority 2014, dated 2019).

How the values were obtained:
Assay type in all cases: in vivo, human
nitric oxide (NO) = test: Nitric oxide level, spectrophotometric, type 2 diabetics; settings: for NO: DM, 400 mcg; for Mean percentage change in NO / NO Post Tt / NO Pre Tt: type 2 diabetics (Example 3), chromium products 400 mcg; for Mean percentage change in NO: 12 week treatment; for NO Post Tt: post-treatment, 12 weeks; for NO Pre Tt: pre-treatment
Procedure: (§1) The present clinical study is a prospective, randomized, double blind, placebo-controlled study. Patients of either sex, aged 30-65 years, fasting plasma glucose of 110-126 mg/dl, a glycosylated hemoglobin (HbA1c) between 6.5% and 8% and taking stable dose of anti-diabetic treatment (metformin 1500-2000 mg/day) for the past 8 weeks prior to the screening visit; and having endothelial dysfunction defined as ≤6% change in reflection index (RI) on post salbutamol challenge test were included in the study. Patients with severe uncontrolled hyperglyceamia, uncontrolled hypertension, cardiac arrhythmia, impaired hepatic or renal function, history of malignancy or stroke, smoking, chronic alcoholism, any other serious disease requiring active treatment and treatment with any other herbal supplements, were excluded from the study.
(§2) After screening, all the eligible subjects were randomized to receive either one of the three treatments orally for duration of 12 weeks—Group1—one capsule of Crominex®3+, 200 mcg once daily, Group 2—one capsule Crominex®3+, 400 mcg once daily; Group 3—one capsule of placebo once daily.
(§3) Subjects were required for follow up at 4, 8 and 12 weeks of therapy. At each visit they were evaluated for efficacy and safety. Pharmacodynamic evaluation for endothelial function was conducted at every visit. Blood samples were collected for evaluation of biomarkers before and at the end of treatment. Safety lab investigations for hematological, hepatic and renal biochemical parameters were conducted before and at the end of the study and also as and when required (in case of any adverse drug reaction (ADR). Subjects were enquired for the presence of ADR and the same was recorded in the case report form. Compliance to therapy was assessed by pill count method.
(§4) Nitric oxide, MDA, Glutathione and levels were estimated spectrophotometrically as follows. Malondialdehyde (MDA) levels were determined as described in Vidyasagar, et al., “Oxidative stress and antioxidant status in acute organophosphorous insecticide poisoning,” Indian J. Pharmacol. (April 2004) 36(2): 76-79. Glutathione levels were determined as described in G. L. Ellman, Arch. Biochem. Biophys. (1959) 82: 70-77 (original determination). Nitric oxide levels were estimated spectrophotometrically as described in Miranda, et al., “A Rapid, Simple Spectrophotometric Method for Simultaneous Detection of Nitrate and Nitrite,” NITRIC OXIDE: Biology and Chemistry (2001) Vol. 5, No. 1, pp. 62-71. hsCRP (high sensitivity C-reactive protein) was determined by ELISA method.
(§5) When the results with Crominex® 3+ in the above two examples were highly significant, especially with the 400 mcg once daily dose in type 2 diabetics, two more clinical studies (EXAMPLES 3 & 4) were conducted at the same institute, following the same methodology as described earlier, on the individual components of Crominex® 3+, i.e., chromium chloride and Phyllanthus emblica+Shilajit, and other chromium supplements available in the market, i.e., chromium picolinate, chromium polynicotinate and chromium dinicocysteinate, in type 2 diabetics as well as in subjects with metabolic syndrome symptoms.

glutathione (GSH) [1] = test: Glutathione level, spectrophotometric, type 2 diabetics; settings: for GSH: DM, 400 mcg; for Mean percentage change in GSH / GSH Post Tt / GSH Pre Tt: type 2 diabetics (Example 3), chromium products 400 mcg; for Mean percentage change in GSH: 12 week treatment; for GSH Post Tt: post-treatment, 12 weeks; for GSH Pre Tt: pre-treatment
Procedure: as §1, §2, §3, §4, §5

malondialdehyde (MDA) = test: Malondialdehyde level, spectrophotometric, type 2 diabetics; settings: for MDA: DM, 400 mcg; for Mean percentage change in MDA / MDA Post Tt / MDA Pre Tt: type 2 diabetics (Example 3), chromium products 400 mcg; for Mean percentage change in MDA: 12 week treatment; for MDA Post Tt: post-treatment, 12 weeks; for MDA Pre Tt: pre-treatment
Procedure: as §1, §2, §3, §4, §5

[2] = Blood pressure, type 2 diabetics; settings: type 2 diabetics (Example 3), chromium products 400 mcg; for Diastolic blood pressure Post Tt / Systolic blood pressure Post Tt: post-treatment, 12 weeks; for Diastolic blood pressure Pre Tt / Systolic blood pressure Pre Tt: pre-treatment
Procedure: as §5

fasting plasma glucose = test: Fasting plasma glucose, type 2 diabetics; settings: for Fasting Glucose: DM, 400 mcg; for Fasting Plasma Glucose Post Tt / Fasting Plasma Glucose Pre Tt: type 2 diabetics (Example 3), chromium products 400 mcg; for Fasting Plasma Glucose Post Tt: post-treatment, 12 weeks; for Fasting Plasma Glucose Pre Tt: pre-treatment
Procedure: as §5

endothelial function = test: Reflection index (RI), salbutamol challenge test, metabolic syndrome subjects; settings: for RI: MS, 400 mcg; for Absolute change in RI / RI, % Post Tt / RI, % Pre Tt: metabolic syndrome subjects (Example 4), chromium products 400 mcg; for Absolute change in RI / RI, % Post Tt: after 12 weeks of treatment; for RI, % Pre Tt: pre-treatment
Excerpt: A salbutamol (albuterol) challenge test employing digital volume plethysmography was used to assess endothelial function as reported by Chowienczyk et al., “Photoplethysmographic assessment of pulse wave reflection: blunted response to endothelium dependant beta 2-adrenergic vasodilation in type 2 diabetes mellitus,” J. Am. Coll. Cardiol. (1999 December) 34(7):2007-14; and Naidu, et al., “Comparison of two β2 adrenoceptor agonists by different routes of administration to assess human endothelial function,” Indian J. Pharmacol. (2007) 39:168-9. The patients were examined in supine position after 5 minutes of rest. A digital volume pulse (DVP) was obtained using a photo plethysmograph (Pulse Trace PCA2, PT200, Micro Medical, Gallingham, Kent, UK) transmitting infrared light at 940 nm, placed on the index finger of the right hand. The signal from the plethysmograph was digitized using a 12 bit analogue to digital converter with a sampling frequency of 100 Hz. DVP waveforms were recorded over 20 second period and the height of the late systolic/early diastolic portion of the DVP was expressed as a percentage of the amplitude of the DVP to yield the reflection index (RI), per the procedure described in detail by Millasseau et al., “Determination of age related increases in large artery stiffness by digital pulse contour analysis,” Clinical Science (2002) 103: 371-377. Three DVP recordings were taken, and measurements of reflection index (RI) were calculated and the mean value was determined. Patients were then administered 400 μg of salbutamol by inhalation. After 15 minutes three measurements of RI were obtained again and the difference in mean RI before and after administration of salbutamol was used for assessing endothelial function. A change of ≤6% in RI post-salbutamol was considered as endothelial dysfunction.
(§6) Patients included in the study, were of either gender, aged 30-68 years, having endothelial dysfunction defined as ≤6% change in reflection index (RI) on post salbutamol challenge test and central obesity as defined by The International Diabetes Federation guidelines, dated 2006, and any two of the following conditions:
(§7) After screening, all the eligible subjects were randomized to receive either one of the three treatments orally for duration of 12 weeks: group 1—one capsule of Crominex®3+ 200 mcg once daily; group 2—one capsule 400 mcg once daily; group 3—one capsule of Placebo once daily.
(§8) Subjects were reviewed for follow up at 4 weeks, 8 and 12 weeks of therapy. At each visit they were evaluated for efficacy and safety. Pharmacodynamic evaluation for endothelial function was conducted at baseline and end of treatment. Blood samples were collected for evaluation of biomarkers before and at end of treatment. Safety lab investigations for hematological, hepatic and renal biochemical parameters were conducted before and at the end of the study and also as and when required (in case of any adverse drug reaction (ADR)). Subjects were enquired for the presence of ADR and the same was recorded in the case report form. Compliance to therapy was assessed by pill count method.
(§9) Assessment of endothelial function, biomarkers, safety parameters and primary and secondary efficacy parameters and data analysis were performed as described under the study with type 2 diabetic subjects in Example 1.
as §5

glutathione (GSH) [3] = test: Glutathione level, metabolic syndrome subjects; settings: for GSH: MS, 400 mcg; for GSH Post Tt / Mean percentage change in GSH / GSH Pre Tt: metabolic syndrome subjects (Example 4), chromium products 400 mcg; for GSH Post Tt: after 12 weeks of treatment; for Mean percentage change in GSH: after 12 weeks treatment; for GSH Pre Tt: pre-treatment
Procedure: as §4, §6, §7, §8, §9, §5

Row | Compound | NO (nitric oxide (NO)) [%] | Mean percentage change in NO (nitric oxide (NO)) | NO Post Tt (nitric oxide (NO)) [μM/L] | NO Pre Tt (nitric oxide (NO)) [μM/L] | GSH (glutathione (GSH) [1]) [%] | Mean percentage change in GSH (glutathione (GSH) [1]) | GSH Post Tt (glutathione (GSH) [1]) [μM/L] | GSH Pre Tt (glutathione (GSH) [1]) [μM/L] | MDA (malondialdehyde (MDA)) [%] | Mean percentage change in MDA (malondialdehyde (MDA)) | MDA Post Tt (malondialdehyde (MDA)) [nmol/mL] | MDA Pre Tt (malondialdehyde (MDA)) [nmol/mL] | Diastolic blood pressure Post Tt [2] [NS mmHg] | Systolic blood pressure Post Tt [2] [NS mmHg] | Diastolic blood pressure Pre Tt [2] [mmHg] | Systolic blood pressure Pre Tt [2] [mmHg] | Fasting Glucose (fasting plasma glucose) [%] | Fasting Plasma Glucose Post Tt (fasting plasma glucose) | Fasting Plasma Glucose Pre Tt (fasting plasma glucose) | RI (endothelial function) [%] | also measured
1 | O.O.O.O.O.O.[Cl][Cr]([Cl])[Cl] [Chromium chloride, Chromium chloride (CrCl3.6H2O)] | 6.98 | 6.98 ± 10.15@NS % | 29.60 ± 2.65 | 27.74 ± 2.01 | 4.22 | 4.22 ± 0.64 #$NS % | 527.08 ± 16.98 | 505.73 ± 16.66 | −5.14 | −5.14 ± 1.92 #NS % | 3.73 ± 0.39 | 3.93 ± 0.39 | 77.16 ± 1.68 | 117.26 ± 1.52 | 77.05 ± 1.68 | 117.37 ± 2.50 | 0.87 | 134.21 ± 9.32 NS mg/dL | 133.05 ± 7.95 mg/dL | −0.1 | Absolute change in RI (endothelial function): −0.10 ± 1.34 #@ %; RI, % Post Tt (endothelial function): −3.43 ± 1.49 NS %; RI, % Pre Tt (endothelial function): −3.06 ± 1.98%; GSH (glutathione (GSH) [3]): 4.2%; GSH Post Tt (glutathione (GSH) [3]): 542.56 ± 46.51 μM/L; Mean percentage change in GSH (glutathione (GSH) [3]): 4.17 ± 1.80%; GSH Pre Tt (glutathione (GSH) [3]): 521.35 ± 49.06 μM/L
2 | chromium dinicocysteinate | 7.08 | 7.08 ± 2.40@NS % | 30.91 ± 2.87 | 28.88 ± 2.72 | 5.77 | 5.77 ± 1.47 #$NS % | 563.66 ± 11.04 | 532.95 ± 10.63 | −6.62 | −6.62 ± 1.20@NS % | 3.72 ± 0.30 | 3.98 ± 0.31 | 76.78 ± 1.22 | 118.11 ± 2.11 | 77.00 ± 1.41 | 118.89 ± 3.08 | −3.2 | 132.3 ± 4.41 $ mg/dL | 136.8 ± 6.99^ mg/dL | −0.98 | Absolute change in RI (endothelial function): −0.98 ± 0.76 #@NS %; RI, % Post Tt (endothelial function): −4.58 ± 0.89 @ %; RI, % Pre Tt (endothelial function): −3.55 ± 1.09 ^ %; GSH (glutathione (GSH) [3]): 5.4%; GSH Post Tt (glutathione (GSH) [3]): 558.38 ± 33.94 μM/L; Mean percentage change in GSH (glutathione (GSH) [3]): 5.41 ± 1.38%; GSH Pre Tt (glutathione (GSH) [3]): 529.89 ± 33.97 μM/L
3 | chromium picolinate | 11.1 | 11.09 ± 4.73@NS % | 32.96 ± 2.54 | 29.75 ± 2.92 | 7.2 | 7.20 ± 0.82 #@NS % | 535.96 ± 31.89 | 499.99 ± 30.23 | −6.03 | −6.03 ± 1.65 #NS % | 3.78 ± 0.34 | 4.02 ± 0.33 | 76.32 ± 2.14 | 117.47 ± 2.82 | 76.95 ± 2.70 | 118.63 ± 2.75 | 1.2 | 134.84 ± 6.78 NS mg/dL | 133.21 ± 8.27 mg/dL | −3.25 | Absolute change in RI (endothelial function): −3.25 ± 0.98 #@NS %; RI, % Post Tt (endothelial function): −6.45 ± 0.40 %; GSH (glutathione (GSH) [3]): 7.1%; GSH Post Tt (glutathione (GSH) [3]): 550.63 ± 26.21 μM/L; Mean percentage change in GSH (glutathione (GSH) [3]): 7.07 ± 1.95%; GSH Pre Tt (glutathione (GSH) [3]): 514.35 ± 25.09 μM/L
4 | chromium polynicotinate | 5.33 | 5.33 ± 2.25 #@NS % | 31.86 ± 2.55 | 30.26 ± 2.48 | 5.3 | 5.30 ± 1.04 #@NS % | 534.54 ± 32.56 | 507.72 ± 31.73 | −5.56 | −5.56 ± 1.34 #NS % | 3.75 ± 0.24 | 3.97 ± 0.23 | 79.7 ± 2.85 | 124.1 ± 4.88 | 81.2 ± 3.07 | 125.9 ± 5.17 | 0.63 | 136.3 ± 7.86 NS mg/dL | 135.45 ± 7.45 mg/dL | −1.51 | Absolute change in RI (endothelial function): −1.51 ± 1.78 #@NS %; RI, % Post Tt (endothelial function): −3.85 ± 0.86 @ %; RI, % Pre Tt (endothelial function): −2.39 ± 2.18 ^ %; GSH (glutathione (GSH) [3]): 5.1%; GSH Post Tt (glutathione (GSH) [3]): 549.43 ± 20.18 μM/L; Mean percentage change in GSH (glutathione (GSH) [3]): 5.09 ± 1.36%; GSH Pre Tt (glutathione (GSH) [3]): 522.92 ± 20.68 μM/L
